The text below walks through data of patent US20260356846A1, “STATIN DERIVATIVES AND METHODS OF USING THE SAME” (The General Hospital Corporation, priority 2023, published 2026).

What is called EC50 is the midpoint of the concentration-response curve. The term maximal fold induction denotes the ratio of treated to control signal. The low end stands for a weak induction, the high end for a strong induction.

Like-named read-outs stand apart in the source and are kept apart here.

Assay [1] deals with STMN2 (WT STMN2-NLuc SH-SY5Y cells). The assay is described as follows: STMN2 nanoluciferase assay in WT SH-SY5Y cells (Table A: WT TDP-32; Table B: WT HD Luciferase). In kind it is cell-based, human. The settings on record: Homo sapiens, SH-SY5Y, WT cell line; for maximal fold induction: Emax.
Assay [2] has as its system STMN2 (TDP-mut (N352S) STMN2-NLuc SH-SY5Y cells). The assay is described as follows: STMN2 nanoluciferase assay in TDP-43 mutant SH-SY5Y cells (Table A: mut TDP-43; Table B: mut HD Luciferase). In kind it is cell-based, human. The note with it: mutant TDP-43 cell line; for EC50: Homo sapiens, SH-SY5Y.
[3] abbreviates: Table B, read-out: EC50, WT HD Luciferase.
The mark [4] stands for this setting: Table B, read-out: EC50, mut HD Luciferase.
The mark [5] stands for this setting: Table A, read-out: EC50, WT TDP-32.
Where [6] appears, read: Table A, read-out: EC50, mut TDP-43.

As for `COCc1c(C2CC2)nc(C2CC2)c(/C=C/[C@@H](O)C[C@@H](O)CC(=O)O)c1-c1ccccc1Cl` [II-25, (3R,5S,E)-7-(4-(2-chlorophenyl)-2,6-dicyclopropyl-5-(methoxymethyl)pyridin-3-yl)-3,5-dihydroxyhept-6-enoic acid], the EC50 in assay [1] (setting [3]) and in assay [2] (setting [4]) was 0.01 to 0.05 µM throughout.

Take `COCc1c(C2CC2)nc(C)c(/C=C/[C@@H](O)C[C@@H](O)CC(=O)O)c1-c1ccc(F)cc1C` [II-26, (3R,5S,E)-7-(6-cyclopropyl-4-(4-fluoro-2-methylphenyl)-5-(methoxymethyl)-2-methylpyridin-3-yl)-3,5-dihydroxyhept-6-enoic acid]: the maximal fold induction in assay [1] (Table B) is 1 to 1.25. Besides, the EC50 in assay [1] (setting [3]) and in assay [2] (setting [4]) was not below 0.5 µM in each case. Moreover, the “HD Luciferase (mut, Emax)” value in assay [2] (Table B) is “* (means≥1 and <1.25)”.

In assay [1] (Table B), `O=C(O)C[C@H](O)C[C@H](O)/C=C/c1c(-c2ccc(F)cc2Cl)cc(C2CC2)nc1C1CCC1` [II-27, (3R,5S,E)-7-(4-(2-chloro-4-fluorophenyl)-2-cyclobutyl-6-cyclopropylpyridin-3-yl)-3,5-dihydroxyhept-6-enoic acid] had a maximal fold induction of 1 to 1.25. Also, the EC50 in assay [1] (setting [3]) and in assay [2] (setting [4]) was not below 0.5 µM in each case. Besides, the “HD Luciferase (mut, Emax)” value in assay [2] (Table B) was “* (means≥1 and <1.25)”.

Take `O=C(O)C[C@H](O)C[C@H](O)/C=C/c1c(C2CC2)nc2ccccc2c1-c1ccc(F)cc1` [Pitavastatin, pitavastatin, reference compound]: the EC50 in assay [1] (setting [5]) and in assay [2] (setting [6]) was 0.5 to 1 µM in each case.

In the case of `CC[C@H](C)C(=O)O[C@H]1C[C@H](O)C=C2C=C[C@H](C)[C@H](CC[C@@H](O)C[C@@H](O)CC(=O)O)[C@H]21` [Pravastatin], the EC50 in assay [1] (setting [5]) and in assay [2] (setting [6]) was not below 10 µM each time.
